Reference: US5420335A, “Parenteral nutrients based on watersoluble glycerol bisacetoacetates” (priority 1993, dated 1995)
Values joined by “and” are separate entries in the source; they are usually repeats but may differ in a detail not shown here. Equal entries are not always repeated. “Also recorded” adds a separate entry of the source.

Tests used:
[1] = Oral dietary nitrogen (food) intake of intravenously infused rats; assay type: in vivo, rat (male Sprague-Dawley); conditions: in words
Experimental: (§1) Water was available ad libitum at all times.
(§2) The vein was then ligated dorsally to the catheter. […] Body weights were measured daily.
(§3) Infusate volume, oral food intake, body weight and urinary volume and total nitrogen were monitored daily for each rat. Infusate volume and food intake were determined by weighing the appropriate container at the start and end of each 24 hr. period. Measurements were recorded between 9 and 10 AM each day. At the end of the 7th day, rats were sacrificed, and blood and liver were harvested. Plasma was separated for measurement of free fatty acids, glucose, and ketone bodies. Liver was weighed and a sample was fixed in buffered formalin for gross histology.
(§4) The data were analyzed for significance by the one-way analysis of variance with repeated measures and comparing the effect of dietary treatment on each day. […] The null hypothesis was concluded invalid if p≤0.05. The analysis of variance was computed on a SAS statistical package.
(§5) This compound has an estimated energy density of 4.86 kcal/gram based on thermodynamic data from similar compounds.

[2] = Daily urinary nitrogen losses of intravenously infused rats; assay type: in vivo, rat (male Sprague-Dawley); conditions: for Urinary Nitrogen: Table 8, Example 4
Experimental: as §1, §2, §3
(§6) The data were analyzed for significance by the one-way analysis of variance with repeated measures and comparing the effect of dietary treatment on each day. […] The null hypothesis was concluded invalid if p≤0.05. The analysis of variance was computed on a SAS statistical package. […]

[3] = Nitrogen balance (difference between intake and urinary output); assay type: in vivo, rat (male Sprague-Dawley); conditions: for Nitrogen Balance, Difference Between Intake And Output: average of 9 rats
Experimental: as §1, §2, §3, §4
FIG. 3 illustrates the difference between oral intake and urinary nitrogen output which is termed nitrogen balance. It is representative of nitrogen balance because urinary nitrogen is the major route for body loss of nitrogen.
The experimental compound contains 8% nitrogen. With an infusion of 5.6 grams/day, infused nitrogen would provide approximately 450 mg more than that listed in the data tables. The final balance figures includes this number which is calculated based on the actual daily infusion rate for each rat.

[4] = Daily body weight of intravenously infused rats; assay type: in vivo, rat (male Sprague-Dawley); conditions: for Daily Body Weight: Table 10, Example 4
Experimental: as §1, §2, §3, §4, §5

[5] = Liver weight after 7 days of infusion; assay type: in vivo, rat (male Sprague-Dawley); conditions: Table 11, Example 4; for Liver/100 GM: as percentage of body weight; for Liver Wt.: end of day 7
Experimental: as §3, §6

[6] = Plasma free fatty acids, glucose and ketone bodies after 7 days of infusion; assay type: in vivo, rat (male Sprague-Dawley); conditions: for ACAC / BOHB / Glucose / Total FFA: Table 11, Example 4
Experimental: as §3, §4

[7] = Mortality and gross toxicity on intravenous infusion; conditions: in words; conclusion
Experimental: as §1, §2

[8] = Overall evaluation as a parenteral nutrient; assay type: in vivo, rat (male Sprague-Dawley); conditions: in words
Experimental: as §1, §2, §3, §4

[9] = Oral dietary nitrogen (food) intake of intravenously infused rats; assay type: in vivo, rat (male Sprague-Dawley); conditions: Table 7, Example 4, oral only

In the case of CC(=O)CC(=O)NCC(O)CO (centres unmarked) [Compound 2, 1-acetoacetamido-2,3-propane diol], the appetite depression ([1]; Example 4) was “did not depress the rats appetite”, the “differences in dietary nitrogen intake among the three groups” value ([1]; vs saline and other groups, 7 days) was “no differences in dietary nitrogen intake among the three groups” and the “Urinary Nitrogen” value ([2]; day 1, average of 9 rats) was 477 mg. The “Urinary Nitrogen” value ([2]; day 1, individual rat) was 562.1 mg and 483.2 mg and 380.8 mg and 411.4 mg and 401.7 mg and 527.6 mg and 477.8 mg and 509.6 mg and 536.4 mg, the “Urinary Nitrogen” value ([2]; day 2, average of 9 rats) was 550 mg and the “Urinary Nitrogen” value ([2]; day 2, individual rat) was 661.5 mg and 542.5 mg and 499.8 mg and 464 mg and 462.84 mg and 583.3 mg and 486 mg and 528 mg and 718.2 mg. For the same molecule, the “Urinary Nitrogen” value ([2]; day 3, average of 9 rats) was 576 mg, the “Urinary Nitrogen” value ([2]; day 3, individual rat) was 671.9 mg and 704.1 mg and 548.1 mg and 413.8 mg and 619.3 mg and 603.8 mg and 315.2 mg and 622.2 mg and 682.4 mg and the “Urinary Nitrogen” value ([2]; day 4, average of 9 rats) was 531 mg. The “Urinary Nitrogen” value ([2]; day 4, individual rat) was 559.8 mg and 477.4 mg and 468.3 mg and 385 mg and 499.7 mg and 603.7 mg and 494.3 mg and 614.8 mg and 674.2 mg, the “Urinary Nitrogen” value ([2]; day 5, average of 9 rats) was 479 mg and the “Urinary Nitrogen” value ([2]; day 5, individual rat) was 599 mg and 456 mg and 434.3 mg and 300.2 mg and 365.9 mg and 503.5 mg and 525.1 mg and 552.9 mg and 572.3 mg. The “Urinary Nitrogen” value ([2]; day 6, average of 9 rats) was 548 mg, the “Urinary Nitrogen” value ([2]; day 6, individual rat) was 569 mg and 659.4 mg and 440.8 mg and 286.1 mg and 545.2 mg and 538.5 mg and 608.2 mg and 599 mg and 686.7 mg and the “Urinary Nitrogen” value ([2]; day 7, average of 9 rats) was 567 mg. For the same molecule, the “Urinary Nitrogen” value ([2]; day 7, individual rat) was 602 mg and 613.5 mg and 519.4 mg and 81.4 mg and 588.3 mg and 633.1 mg and 678 mg and 683.9 mg and 706.8 mg, the urinary nitrogen losses ([2]; in words, 7 days) was “reflects the greater nitrogen intake by rats infused with the experimental compound” and the “Nitrogen Balance, Difference Between Intake And Output” value ([3]; Table 9, Example 4, infused nitrogen not considered, day 1) was -198 mg N. The “Nitrogen Balance, Difference Between Intake And Output” value ([3]; Table 9, Example 4, infused nitrogen not considered, day 2) was -173 mg N, the “Nitrogen Balance, Difference Between Intake And Output” value ([3]; Table 9, Example 4, infused nitrogen not considered, day 3) was -146 mg N and the “Nitrogen Balance, Difference Between Intake And Output” value ([3]; Table 9, Example 4, infused nitrogen not considered, day 4) was -142 mg N. For the same molecule, the “Nitrogen Balance, Difference Between Intake And Output” value ([3]; Table 9, Example 4, infused nitrogen not considered, day 5) was -109 mg N, the “Nitrogen Balance, Difference Between Intake And Output” value ([3]; Table 9, Example 4, infused nitrogen not considered, day 6) was -114 mg N and the “Nitrogen Balance, Difference Between Intake And Output” value ([3]; Table 9, Example 4, infused nitrogen not considered, day 7) was -101 mg N. The “Nitrogen Balance, Difference Between Intake And Output” value ([3]; Table 9A, Example 4, infused nitrogen included, day 1) was 256 mg N, the “Nitrogen Balance, Difference Between Intake And Output” value ([3]; Table 9A, Example 4, infused nitrogen included, day 2) was 258 mg N and the “Nitrogen Balance, Difference Between Intake And Output” value ([3]; Table 9A, Example 4, infused nitrogen included, day 3) was 361 mg N. The “Nitrogen Balance, Difference Between Intake And Output” value ([3]; Table 9A, Example 4, infused nitrogen included, day 4) was 302 mg N, the “Nitrogen Balance, Difference Between Intake And Output” value ([3]; Table 9A, Example 4, infused nitrogen included, day 5) was 317 mg N and the “Nitrogen Balance, Difference Between Intake And Output” value ([3]; Table 9A, Example 4, infused nitrogen included, day 6) was 299 mg N. For the same molecule, the “Nitrogen Balance, Difference Between Intake And Output” value ([3]; Table 9A, Example 4, infused nitrogen included, day 7) was 336 mg N, the nitrogen balance ([3]; in words, 7 days) was “negative nitrogen balance if nitrogen content of the compound is not considered” and the “Daily Body Weight” value ([4]; day 0, average of 9 rats) was 244 Grams. The “Daily Body Weight” value ([4]; day 0, individual rat) was 247 Grams and 223 Grams and 252 Grams and 251 Grams and 259 Grams and 236 Grams and 243 Grams and 237 Grams, the “Daily Body Weight” value ([4]; day 1, average of 9 rats) was 234 Grams and the “Daily Body Weight” value ([4]; day 1, individual rat) was 243 Grams and 207 Grams and 240 Grams and 230 Grams and 244 Grams and 242 Grams and 227 Grams and 239 Grams and 237 Grams. For the same molecule, the “Daily Body Weight” value ([4]; day 2, average of 9 rats) was 234 Grams, the “Daily Body Weight” value ([4]; day 2, individual rat) was 247 Grams and 205 Grams and 239 Grams and 227 Grams and 243 Grams and 230 Grams and 235 Grams and 237 Grams and the “Daily Body Weight” value ([4]; day 3, average of 9 rats) was 234 Grams. The “Daily Body Weight” value ([4]; day 3, individual rat) was 251 Grams and 204 Grams and 238 Grams and 223 Grams and 240 Grams and 243 Grams and 235 Grams and 233 Grams, the “Daily Body Weight” value ([4]; day 4, average of 9 rats) was 233 Grams and the “Daily Body Weight” value ([4]; day 4, individual rat) was 255 Grams and 199 Grams and 234 Grams and 208 Grams and 235 Grams and 233 Grams and 244 Grams. The “Daily Body Weight” value ([4]; day 5, average of 9 rats) was 236 Grams, the “Daily Body Weight” value ([4]; day 5, individual rat) was 253 Grams and 246 Grams and 234 Grams and 212 Grams and 230 Grams and 241 Grams and 236 Grams and 237 Grams and the “Daily Body Weight” value ([4]; day 6, average of 9 rats) was 235 Grams. The “Daily Body Weight” value ([4]; day 6, individual rat) was 251 Grams and 242 Grams and 233 Grams and 204 Grams and 243 Grams and 248 Grams and 232 Grams and 231 Grams, the “Daily Body Weight” value ([4]; day 7, average of 9 rats) was 228 Grams and the “Daily Body Weight” value ([4]; day 7, individual rat) was 250 Grams and 218 Grams and 232 Grams and 196 Grams and 237 Grams and 219 Grams and 236 Grams. The “change in body weight” value ([4]; in words, 7 days) was “held relatively constant until the final day when they lose weight; also recorded: did not lose weight nor did they gain”, the “Liver/100 GM” value ([5]; average) was 3.891 and the “Liver/100 GM” value ([5]; individual rat) was 3.621 and 5.165 and 3.928 and 3.739 and 4.018 and 3.066 and 4.304 and 3.228 and 3.95. The “Liver Wt.” value ([5]; average) was 8.842, the “Liver Wt.” value ([5]; individual rat) was 9.0537 and 11.2604 and 9.1128 and 7.3291 and 9.3228 and 7.2672 and 9.4265 and 7.4879 and 9.3213 and the ACAC ([6]; plasma, average) was 0.195 mmol/L. For the same molecule, the BOHB ([6]; plasma, average) was 0.897 mmol/L, the Glucose ([6]; plasma, average) was 108.589 mg/dL and the “Total FFA” value ([6]; plasma, average) was 0.580 mmol/L. The ACAC ([6]; plasma, individual rat) was 0.0958 mmol/L and 0.1231 mmol/L and 0.1385 mmol/L and 0.1032 mmol/L and 0.3378 mmol/L and 0.0999 mmol/L and 0.3415 mmol/L and 0.3225 mmol/L, the BOHB ([6]; plasma, individual rat) was 0.8481 mmol/L and 0.9004 mmol/L and 0.2501 mmol/L and 1.13 mmol/L and 0.8685 mmol/L and 1.3611 mmol/L and 0.5709 mmol/L and 1.163 mmol/L and 0.9826 mmol/L and the Glucose ([6]; plasma, individual rat) was 109.8 mg/dL and 105.2 mg/dL and 112.1 mg/dL and 111.4 mg/dL and 121 mg/dL and 91.1 mg/dL and 132.1 mg/dL and 114.6 mg/dL and 80 mg/dL. The “Total FFA” value ([6]; plasma, individual rat) was 0.306 mmol/L and 0.472 mmol/L and 0.376 mmol/L and 1.408 mmol/L and 0.546 mmol/L and 0.651 mmol/L and 0.286 mmol/L and 0.676 mmol/L and 0.498 mmol/L, the “blood / plasma glucose” value ([6]; in words, end of day 7) was “low blood glucose” and the ketone bodies ([6]; in words, plasma, end of day 7) was “absence of elevated plasma acetoacetate; also recorded: neither of the ketone bodies were elevated when compared to the saline infused rats”. The lethality [7] was “not acutely nor chronically lethal”, the “efficacy as parenteral nutrient / energy source” value [8] was “not a good source of energy” and the “efficacy as parenteral nutrient / energy source” value ([8]; listed as 1-acetoacetamido-2,3-propane diol) was “ineffective as parenteral nutrients”. For the same molecule, the “Dietary Nitrogen Intake” value ([9]; day 1, average of 9 rats) was 279 MG N, the “Dietary Nitrogen Intake” value ([9]; day 1, individual rat) was 513.24 MG N and 92.12 MG N and 164.5 MG N and 138.18 MG N and 171.08 MG N and 493.5 MG N and 440.86 MG N and 355.32 MG N and the “Dietary Nitrogen Intake” value ([9]; day 2, average of 9 rats) was 376 MG N. For the same molecule, the “Dietary Nitrogen Intake” value ([9]; day 2, individual rat) was 532.98 MG N and 256.62 MG N and 526.4 MG N and 59.22 MG N and 282.94 MG N and 506.66 MG N and 263.2 MG N and 447.44 MG N, the “Dietary Nitrogen Intake” value ([9]; day 3, average of 9 rats) was 429 MG N and the “Dietary Nitrogen Intake” value ([9]; day 3, individual rat) was 532.98 MG N and 407.96 MG N and 546.14 MG N and 118.44 MG N and 506.66 MG N and 500.08 MG N and 210.56 MG N and 513.24 MG N and 526.4 MG N. For the same molecule, the “Dietary Nitrogen Intake” value ([9]; day 4, average of 9 rats) was 388 MG N, the “Dietary Nitrogen Intake” value ([9]; day 4, individual rat) was 480.34 MG N and 263.2 MG N and 473.76 MG N and 65.8 MG N and 296.1 MG N and 519.82 MG N and 355.32 MG N and the “Dietary Nitrogen Intake” value ([9]; day 5, average of 9 rats) was 369 MG N. The “Dietary Nitrogen Intake” value ([9]; day 5, individual rat) was 480.34 MG N and 427.7 MG N and 355.32 MG N and 0 MG N and 52.64 MG N and 500.08 MG N and 519.82 MG N and 506.66 MG N, the “Dietary Nitrogen Intake” value ([9]; day 6, average of 9 rats) was 434 MG N and the “Dietary Nitrogen Intake” value ([9]; day 6, individual rat) was 526.4 MG N and 421.12 MG N and 388.22 MG N and 0 MG N and 519.82 MG N and 500.08 MG N and 513.24 MG N and 506.66 MG N. For the same molecule, the “Dietary Nitrogen Intake” value ([9]; day 7, average of 9 rats) was 466 MG N and the “Dietary Nitrogen Intake” value ([9]; day 7, individual rat) was 526.4 MG N and 546.14 MG N and 506.66 MG N and 0 MG N and 532.98 MG N and 519.82 MG N.
